Marks after values point to notes of the source that are not given here.
Legend:
Format in all cases: cell-based
[1] = test system: Escherichia coli ATCC 11229; test: E. coli kill in acid/SLS solutions with and without salt; conditions: for % Kill of E. Coli: 0.6409 grams malic acid and 0.0107 grams sodium lauryl sulfate per liter, with 107.0 grams of the listed salt or without; for kill of E. coli by solution containing only the salt: only the salt and no other ingredient
Description: Ten percent by weight solutions were prepared of a formula of 0.6% citric or malic acid, 100 ppm SLS, and 99.4% sodium chloride. Solutions were also prepared containing an identical concentration of acid and SLS but no sodium chloride. […] A 1.0 ml aliquot of this suspension was added to 100 ml of test solution at room temperature and mixed well, providing an initial inoculum of 10^3 CFU/ml. After 30 minutes, the E. coli populations were enumerated by plating on tryptic soy agar (TSA), making serial dilutions as necessary in BPBW. Plates were incubated at 35° C.+/−2° C. for approximately 24 hours. Colonies were then counted and compared to the initial inoculum counts.
A test was run to determine if salts other than sodium chloride would show a synergistic antimicrobial effect with an acid and sodium lauryl sulfate. Solutions containing 0.6409 grams malic acid and 0.0107 grams sodium lauryl sulfate per liter were prepared with and without 107.0 grams of various salts (added on an anhydrous basis). Solutions were inoculated with E. coli described above and the amount of bacterial kill was measured to determine if the added salt caused an increase in the effectiveness of the acid/surfactant active ingredients.

L. monocytogenes [2] = test: L. monocytogenes kill in cold salt/acid/surfactant solutions; conditions: for L. monocytogenes, Time 4 Hours / L. monocytogenes, Time 0: cold; for Population at 4 hours: concentrations stated in the solution, no added acid, average of two runs where starred
Description: To study chilling brine application of the current embodiment, tests were run on 17% by weight solutions of formulas consisting of between 0.3% and 6.0% citric acid, between 50 and 500 ppm SLS, and between 94% and 99.7% sodium chloride. Test solutions were cooled to −7° C. and inoculated with several strains of L. monocytogenes.
An experiment was run to determine if solutions containing sodium chloride, sodium lauryl sulfate, and various acids would kill L. monocytogenes at cold temperatures. […] A 1.0 ml aliquot of this suspension was added to 100 ml of cold (−7° C.+2° C.) test solution and mixed well, providing an initial inoculum of 10^3 CFU/ml. The test solutions were incubated at −7° C.+/−2° C. for the duration of the experiment. At intervals of 0, 4, and 24 hours the L. monocytogenes populations in the test solutions were determined on Modified Oxford agar (MOX). MOX plates were incubated at 35° C.+/−2° C. for approximately 48 hours. Colonies were then counted and compared to the initial inoculum counts.
Each test solution was a 17% by weight solution of the listed formula prepared in soft water.
In another experiment, 17% by weight solutions of formulas containing various levels of sodium chloride, citric acid, and sodium lauryl sulfate were tested for effectiveness in killing L. monocytogenes at cold temperatures. The same test procedure was used as described above, except test solutions were plated on MOX with a Thin Agar Overlay of TSA (to aid in the recovery of injured cells).
In another experiment, two sets of solutions were tested. The first set (samples 1-12 in Table 10 below) was prepared in hard tap water and contained about 17.0% by mass of the formulation. These samples were inoculated with 10^3 CFU/ml L. monocytogenes by the same procedure as described above. A second set of samples was prepared from brine taken from a ready-to-eat meat processing operation. The recirculated brine had been used to chill packaged meat for one week. After a week of use the brine typically contains various types of aerobic psychotropic and mesophilic bacteria. This experiment was done in order to determine if the additives would kill the microorganisms naturally occurring in actual process brine from a plant. Since the spent chill brine samples already contained NaCl citric acid and/or SLS was added to provide an effective concentration of additive. One set of these samples (samples 13-17) were inoculated with 10^3 L. monocytogenes and the other set (samples 18-22) contained only the naturally occurring organisms in the spent chill brine. […] Other antimicrobials, such as quaternary ammonium compounds can lose significant activity in hard water, often necessitating further additives, such as EDTA as a chelating agent, to maintain antimicrobial activity.
Another set of experiments was done in order to determine the effectiveness of different acids and different types of surfactants in the antimicrobial salt formulations. In one experiment, test solutions containing ˜17% by weight of formulas containing various levels of sodium chloride, 100 ppm sodium lauryl sulfate, and various levels of different acids were tested for effectiveness in killing L. monocytogenes at cold temperatures. The same test procedure was used as described above (test solutions were plated on MOX TAL (Modified Oxford Medium with a Thin Agar Layer) with TSA). The controls were a solution of pure NaCl, a solution of a blend of 100 ppm SLS in NaCl, and a solution of a blend of 0.5% citric acid, 100 ppm SLS, and 99.5% NaCl.

L. monocytogenes [3] = test: L. monocytogenes cocktail challenge of surfactant/salt solutions at 2° C.; conditions: after 4 hours in solution at 2° C.
Description: Tests were generally run according to the following procedure:
(§1) 1. Inoculate a separate tube containing approximately 10 ml of Brain Heart infusion (BHI) broth with the following L. monocytogenes strains: H2446 (CDC Global Standard), Scott A (serotype 4b), 12243 (serotype 1/2a), and two strains isolated from the environment of a cooked meat and poultry facility, designated WP1, and WP4. Incubate the tubes at least 5 days at 7-10° C.+/−2° C. 2. Assume the growth to be 10^9 cfu/ml. Serially dilute each culture in cold (˜7° C.). Butterfield's Phosphate Buffered Water (PBW) to 10^8 cfu/ml (1:10). Since five cultures of L. monocytogenes are being used as a cocktail, begin the dilution series using 2.20 ml of each culture added to 99 ml of PBW. 3. Plate (−6, −7, −8) the diluted culture to get the starting count of the inoculum on Modified Oxford medium (MOX) using a thin agar overlay (TAL) technique (overlay with Trypticase Soy Agar [TSA]) to revive injured cells. 4. Add 1 ml of the diluted cocktail to 100 ml of cold test solution. 5. Mix the solutions well. 6. Determine the L. monocytogenes population at time 0 and 4 hours. Plate −1 (0.1 ml on 1 plate), −2, −3, and −4 dilutions using spread plates on MOX TAL with TSA. 7. Incubate the test solutions at test temperature for the duration of the experiment. 8. Incubate the MOX TAL with TSA plates at 20° C.+/−2° C. for 72+/−3 hours. Count representative colonies, which are black, and multiply by the dilution factor.

L. monocytogenes [4] = test: L. monocytogenes challenge in beef plant chill brine at 4° C.; conditions: after 4 hours at 4° C.; surfactant added to beef plant brine, approximately 17% sodium chloride
Description: as §1
Several tests were carried out to determine the effectiveness of embodiments according to the invention in meat processing chill brines. In one experiment, brine was taken at the end of a production week from a brine chiller used in a ready to eat, cooked beef production line. The sodium chloride concentration in this brine was approximately 17%. Samples of the brine with and without added surfactant were inoculated with a cocktail of L. monocytogenes as per the procedure described above, incubated at 4° C. for four hours, and then plated to determine L. monocytogenes survival.

[5] = 17% by weight of formula of 99.7% sodium chloride, 0.3% citric acid, 500 ppm of listed surfactant
[6] = Table 2, different salts and salt concentrations

## O=S(=O)([O-])[O-].[Na+].[Na+] [Sodium sulfate]
[1]
  % Kill of E. Coli: 87%
  kill of E. coli by solution containing only the salt: no bacterial kill

## sodium salt of sulfonated oleic acid
L. monocytogenes [2]; [5]
  L. monocytogenes, Time 4 Hours: 0 CFU/ml
  L. monocytogenes, Time 0: 240 CFU/ml

## [Cl-].[Na+] [Salt control, reference compound]
L. monocytogenes [2]; ˜17% solution of NaCl, 100 ppm SLS and listed acid to pH ˜3.6
  L. monocytogenes, Time 4 Hours: 1380 CFU/ml
L. monocytogenes [2]; ˜17% solution of NaCl, 100 ppm SLS and listed acid to pH ˜3.6, MOX TAL
  L. monocytogenes, Time 0: 850 CFU/ml

## CC(=O)[O-].[Na+] [20% Sodium Acetate, Sodium Acetate, reference compound]
L. monocytogenes [3]; [6]
  L. mono count: 3.0 × 10^4 cfu/mL

## [Cl-].[Na+] [sodium chloride, reference compound]
L. monocytogenes [2]; brine of sodium chloride alone, 24-hour period
  log reduction of the L. monocytogenes over a 24-hour period: < 1 log
[1]
  % Kill of E. Coli: 78%
[1]; 10% solution of pure sodium chloride
  kill of the test microorganisms: does not provide any significant kill

## sodium linear alkylbenzene sulfonate
L. monocytogenes [4]
  L. mono count: <10 cfu/mL
L. monocytogenes [3]; Table 1
  L. mono count: 5.9 × 10^3 cfu/mL

## fatty alkanolamide [50 ppm fatty alkanolamide]
L. monocytogenes [4]
  L. mono count: <10 cfu/mL
L. monocytogenes [3]; Table 1
  L. mono count: 1.1 × 10^4 cfu/mL

## sulfonated oleic acid, Na salt [50 ppm sulfonated oleic acid, Na salt]
L. monocytogenes [3]; Table 1
  L. mono count: 1.3 × 10^5 cfu/mL

## nonylphenol ethoxylate [25 ppm nonylphenol ethoxylate]
L. monocytogenes [4]
  L. mono count: <10 cfu/mL

## sodium olefin sulfonate [25 ppm sodium olefin sulfonate]
L. monocytogenes [4]
  L. mono count: 60 cfu/mL

## lauramine oxide [50 ppm lauramine oxide]
L. monocytogenes [4]
  L. mono count: <10 cfu/mL
L. monocytogenes [3]; Table 1
  L. mono count: 3.6 × 10^3 cfu/mL
L. monocytogenes [3]; [6]
  L. mono count: 5.8 × 10^4 cfu/mL

## fatty alkanolaminde [12.5 ppm fatty alkanolaminde]
L. monocytogenes [4]
  L. mono count: 40 cfu/mL

## nonylphenol ethoxylate [50 ppm nonylphenol ethoxylate]
L. monocytogenes [4]
  L. mono count: <10 cfu/mL
L. monocytogenes [3]; Table 1
  L. mono count: 1.3 × 10^5 cfu/mL

## dodecyl diphenyl oxide disulfonate
L. monocytogenes [2]; [5]
  L. monocytogenes, Time 4 Hours: 0 CFU/ml
  L. monocytogenes, Time 0: 0 CFU/ml

## fatty alkanolamide
L. monocytogenes [2]; [5]
  L. monocytogenes, Time 4 Hours: 0 CFU/ml
  L. monocytogenes, Time 0: 470 CFU/ml

## O=C[O-].[Na+] [20% Sodium Formate, Sodium Formate, reference compound]
L. monocytogenes [3]; [6]
  L. mono count: 3.6 × 10^5 cfu/mL

## CC(=O)[O-].[K+] [20% Potassium Acetate, Potassium Acetate, reference compound]
L. monocytogenes [3]; [6]
  L. mono count: 4.2 × 10^5 cfu/mL

## nonylphenol ethoxylate [12.5 ppm nonylphenol ethoxylate]
L. monocytogenes [4]
  L. mono count: 20 cfu/mL

## sodium linear alkyl-benzene sulfonate
L. monocytogenes [2]; [5]
  L. monocytogenes, Time 4 Hours: 0 CFU/ml
  L. monocytogenes, Time 0: 490 CFU/ml

## sodium olefin sulfonate [12.5 ppm sodium olefin sulfonate]
L. monocytogenes [4]
  L. mono count: 110 cfu/mL

## polyoxyethylene-polyoxypropylene block polymer
L. monocytogenes [2]; [5]
  L. monocytogenes, Time 4 Hours: 610 CFU/ml
  L. monocytogenes, Time 0: 820 CFU/ml

## lauramine oxide
L. monocytogenes [2]; [5]
  L. monocytogenes, Time 4 Hours: 0 CFU/ml
  L. monocytogenes, Time 0: 2 CFU/ml

## O=S(=O)([O-])[O-].[Mg+2] [Magnesium sulfate]
[1]
  % Kill of E. Coli: 93%
  kill of E. coli by solution containing only the salt: 10%

## alkylpolyglucoside
L. monocytogenes [2]; [5]
  L. monocytogenes, Time 4 Hours: 0 CFU/ml
  L. monocytogenes, Time 0: 280 CFU/ml

## C12(branched) sodium diphenyl oxide disulfonate
L. monocytogenes [3]; [6]
  L. mono count: 3.1 × 10^4 cfu/mL

## [Cl-].[Cl-].[Mg+2] [Magnesium chloride]
[1]
  % Kill of E. Coli: 56%
  kill of E. coli by solution containing only the salt: 61%

## sodium linear alkylbenzene [25 ppm sodium linear alkylbenzene]
L. monocytogenes [4]
  L. mono count: <10 cfu/mL

## [Cl-].[Na+] [20% NaCl (control), sodium chloride, reference compound]
L. monocytogenes [2]
  Population at 4 hours: 4.32 log cfu/mL
L. monocytogenes [3]; Table 1
  L. mono count: 1.0 × 10^5 cfu/mL
L. monocytogenes [3]; [6]
  L. mono count: 4.0 × 10^5 cfu/mL

## alkyl polyglucoside [50 ppm alkyl polyglucoside]
L. monocytogenes [3]; Table 1
  L. mono count: 9.6 × 10^4 cfu/mL

## O=S(=O)([O-])[O-].[K+].[K+] [Potassium sulfate]
[1]
  % Kill of E. Coli: 34%
  kill of E. coli by solution containing only the salt: no bacterial kill

## CCCCCCCCCCCCOS(=O)(=O)[O-].[Na+] [50 ppm SLS (no NaCl), sodium lauryl sulfate]
L. monocytogenes [2]
  Population at 4 hours: 3.90* log cfu/mL

## nonylphenol ethoxylate
L. monocytogenes [2]; [5]
  L. monocytogenes, Time 4 Hours: 0 CFU/ml
  L. monocytogenes, Time 0: 460 CFU/ml

## fatty alkanolaminde [25 ppm fatty alkanolaminde]
L. monocytogenes [4]
  L. mono count: <10 cfu/mL

## sodium xylene sulfonate
L. monocytogenes [2]; [5]
  L. monocytogenes, Time 4 Hours: 820 CFU/ml
  L. monocytogenes, Time 0: 910 CFU/ml

## [Ca+2].[Cl-].[Cl-] [Calcium chloride]
[1]
  % Kill of E. Coli: 55%
  kill of E. coli by solution containing only the salt: 26%

## [Cl-].[K+] [Potassium chloride]
[1]
  % Kill of E. Coli: 18%
  kill of E. coli by solution containing only the salt: no bacterial kill

## alpha-olefin sulfonate
L. monocytogenes [2]; [5]
  L. monocytogenes, Time 4 Hours: 0 CFU/ml
  L. monocytogenes, Time 0: 370 CFU/ml
